Data reported in ChEMBL document CHEMBL4340516, “Synthesis and antitumor activity of novel steroidal imidazolium salt derivatives” (Eur J Med Chem, 2019).
pIC50: −log10 of the molar value.

Key:
[1] = test system: SMMC-7721; test: Cell cycle arrest in human SMMC7721 cells assessed as accumulation of cells at S phase at 1 uM after 24 hrs by propidium iodide staining-based flow cytometric analysis (reference value: 24.5 +/- 0.05%); format: functional
[2] = test system: SMMC-7721; test: Cell cycle arrest in human SMMC7721 cells assessed as accumulation of cells at S phase at 4 uM after 24 hrs by propidium iodide staining-based flow cytometric analysis (reference value: 24.5 +/- 0.05%); format: functional
[3] = test system: SMMC-7721; test: Cell cycle arrest in human SMMC7721 cells assessed as accumulation of cells at G2/M phase at 0.5 uM after 24 hrs by propidium iodide staining-based flow cytometric analysis (reference value: 8.72 +/- 0.42%); format: functional
[4] = test system: SMMC-7721; test: Induction of apoptosis in human SMMC7721 cells assessed as necrotic cells at 1 uM after 48 hrs by annexin V-FITC/propidium iodide staining based flow cytometry (reference value: 0.6%); format: functional
[5] = test system: SMMC-7721; test: Cell cycle arrest in human SMMC7721 cells assessed as accumulation of cells at G0/G1 phase at 4 uM after 24 hrs by propidium iodide staining-based flow cytometric analysis (reference value: 62.58 +/- 0.35%); format: functional
[6] = test system: SMMC-7721; test: Induction of apoptosis in human SMMC7721 cells assessed as early apoptotic cells at 2 uM after 48 hrs by annexin V-FITC/propidium iodide staining based flow cytometry (reference value: 1.68%); format: functional
[7] = test system: SMMC-7721; test: Cell cycle arrest in human SMMC7721 cells assessed as accumulation of cells at S phase at 0.5 uM after 24 hrs by propidium iodide staining-based flow cytometric analysis (reference value: 24.5 +/- 0.05%); format: functional
[8] = test system: SMMC-7721; test: Induction of apoptosis in human SMMC7721 cells assessed as viable cells at 2 uM after 48 hrs by annexin V-FITC/propidium iodide staining based flow cytometry (reference value: 94.7%); format: functional; conditions: SMMC-7721, 48 h, read-out: Activity
[9] = test system: SW480; test: Antiproliferative activity against human SW480 cells assessed as reduction in cell viability incubated for 48 hrs by MTS assay; format: functional, cell-based; conditions: SW480, 48 h
[10] = test system: SMMC-7721; test: Cell cycle arrest in human SMMC7721 cells assessed as accumulation of cells at sub-G1 phase at 1 uM after 24 hrs by propidium iodide staining-based flow cytometric analysis (reference value: 2.33 +/- 0.17%); format: functional
[11] = test system: SMMC-7721; test: Cell cycle arrest in human SMMC7721 cells assessed as accumulation of cells at sub-G1 phase at 0.5 uM after 24 hrs by propidium iodide staining-based flow cytometric analysis (reference value: 2.33 +/- 0.17%); format: functional
[12] = test system: HL-60; test: Antiproliferative activity against human HL60 cells assessed as reduction in cell viability incubated for 48 hrs by MTS assay; format: functional, cell-based; conditions: HL-60, 48 h
[13] = test system: A549; test: Antiproliferative activity against human A549 cells assessed as reduction in cell viability incubated for 48 hrs by MTS assay; format: functional, cell-based; conditions: A549, 48 h
[14] = test system: SMMC-7721; test: Cell cycle arrest in human SMMC7721 cells assessed as accumulation of cells at G0/G1 phase at 0.5 uM after 24 hrs by propidium iodide staining-based flow cytometric analysis (reference value: 62.58 +/- 0.35%); format: functional
[15] = test system: SMMC-7721; test: Cell cycle arrest in human SMMC7721 cells assessed as accumulation of cells at G0/G1 phase after 24 hrs by propidium iodide staining-based flow cytometric analysis; format: functional
[16] = test system: SMMC-7721; test: Cell cycle arrest in human SMMC7721 cells assessed as accumulation of cells at G0/G1 phase at 1 uM after 24 hrs by propidium iodide staining-based flow cytometric analysis (reference value: 62.58 +/- 0.35%); format: functional
[17] = test system: SMMC-7721; test: Cell cycle arrest in human SMMC7721 cells assessed as accumulation of cells at G0/G1 phase at 2 uM after 24 hrs by propidium iodide staining-based flow cytometric analysis (reference value: 62.58 +/- 0.35%); format: functional
[18] = test system: SMMC-7721; test: Cell cycle arrest in human SMMC7721 cells assessed as accumulation of cells at G2/M phase at 4 uM after 24 hrs by propidium iodide staining-based flow cytometric analysis (reference value: 8.72 +/- 0.42%); format: functional
[19] = test system: SMMC-7721; test: Induction of apoptosis in human SMMC7721 cells assessed as late apoptotic cells at 2 uM after 48 hrs by annexin V-FITC/propidium iodide staining based flow cytometry (reference value: 3.05%); format: functional
[20] = test system: MCF7; test: Antiproliferative activity against human MCF7 cells assessed as reduction in cell viability incubated for 48 hrs by MTS assay; format: functional, cell-based; conditions: MCF7, 48 h
[21] = test system: SMMC-7721; test: Induction of apoptosis in human SMMC7721 cells assessed as early apoptotic cells at 1 uM after 48 hrs by annexin V-FITC/propidium iodide staining based flow cytometry (reference value: 1.68%); format: functional
[22] = test system: SMMC-7721; test: Induction of apoptosis in human SMMC7721 cells assessed as late apoptotic cells at 1 uM after 48 hrs by annexin V-FITC/propidium iodide staining based flow cytometry (reference value: 3.05%); format: functional
[23] = test system: SMMC-7721; test: Antiproliferative activity against human SMMC7721 cells assessed as reduction in cell viability incubated for 48 hrs by MTS assay; format: functional, cell-based; conditions: SMMC-7721, 48 h
[24] = test system: SMMC-7721; test: Induction of apoptosis in human SMMC7721 cells assessed as viable cells at 1 uM after 48 hrs by annexin V-FITC/propidium iodide staining based flow cytometry (reference value: 94.7%); format: functional; conditions: SMMC-7721, 48 h, read-out: Activity
[25] = test system: SMMC-7721; test: Cell cycle arrest in human SMMC7721 cells assessed as accumulation of cells at G2/M phase at 1 uM after 24 hrs by propidium iodide staining-based flow cytometric analysis (reference value: 8.72 +/- 0.42%); format: functional
[26] = test system: SMMC-7721; test: Induction of apoptosis in human SMMC7721 cells assessed as necrotic cells at 2 uM after 48 hrs by annexin V-FITC/propidium iodide staining based flow cytometry (reference value: 0.6%); format: functional

Compound: Cc1cc2c(cc1C)[n+](Cc1ccccc1Br)cn2[C@@H]1CC[C@@]2(C)C(=CC[C@H]3[C@@H]4C[C@@H]5O[C@]6(CC[C@@H](C)CO6)[C@@H](C)[C@@H]5[C@@]4(C)CC[C@@H]32)C1.[Br-]
- Activity [1]: 14.22%
- Activity [2]: 14.22%
- Activity [3]: 3.49%
- Activity [4]: 1.27%
- Activity [5]: 78.1%
- Activity [6]: 0.69%
- Activity [7]: 19.23%
- viability at 2 µM [8]: 27.8%
- pIC50 [9]: 6.10
- Activity [10]: 2.43%
- Activity [11]: 2.4%
- pIC50 [12]: 6.31
- pIC50 [13]: 6.17
- Activity [14]: 73.61%
- Activity [15]: Dose-dependent effect
- Activity [16]: 78.1%
- Activity [17]: 73.61%
- Activity [18]: 4.67%
- Activity [19]: 64.9%
- pIC50 [20]: 6.14
- Activity [21]: 0.373%
- Activity [22]: 18.7%
- pIC50 [23]: 6.36
- viability at 1 µM [24]: 79.6%
- Activity [25]: 4.67%
- Activity [26]: 6.62%
